Key:
[1] = tested on: gerbils subjected to 10 minutes of ischemia; experiment: Postischemic Morris water maze test (spatial memory); assay type: in vivo, gerbil
Description: The Morris water maze (Morris et al., supra) is now considered the most direct means of assessing post-ischemic memory and learning of spatially oriented tasks (Corbett et al., Neuroreport, 3, 204 (1992)). This test is well known in the art and the specific parameters of this test as used herein are defined below. Female gerbils (Tumblebrook Farms, Mass.) weighing 70 g were used in the study. Prior to inclusion in the experiments, animals were tested for susceptibility to spontaneous seizures using the method described by Lee et al., Neuropharmacol., 5, 517 (1984). Seizure-prone gerbils were rejected.
The details of the water maze are known in the art (von Lubitz et al., 1993 supra). Briefly, the system consists of a tank (1 m diameter) which is filled with opaque water to a depth of 30 cm. The tank contains a colorless target platform (15 cm diameter) submerged to a depth of 1.5 cm and placed in the center of the north-west quadrant. […]
Prior to subjecting the gerbils to 10 minutes of ischemia, the gerbils were randomly divided into the control and the drug testing groups. […] During post-ischemic recovery, animals were monitored each day for signs of functional damage (e.g., pareses) that might affect their subsequent water maze performance. Postischemic mortality was also monitored every day.

[2] = tested on: cortex, hippocampal CA1 sector, and striatum; experiment: Nissl histology of neuronal loss, preischemic ADAC; assay type: in vivo, gerbil; details: two weeks after ischemia
Description: The gerbils of Example 3 were subjected to examination procedures subsequent to the water maze tests described in Example 3. One day after the last postischemic water maze trial, all animals were heavily anesthetized with Nembutal and perfused through the aorta with buffered (pH 7.4) formaldehyde. Frozen sections of the brains were made as described previously (Lin et al., supra). The sections were stained using the method of Nissl, and the extent of the neuronal loss was determined in the cortex, hippocampal CA1 sector, and striatum following the published protocol of von Lubitz et al. (von Lubitz, 1992, supra; von Lubitz, 1994, supra).

[3] = tested on: microtubule associated protein 2 (MAP-2); experiment: MAP-2 preservation in CA1 after 10 minute ischemia, postischemic ADAC; assay type: in vivo, gerbil; details: 100 μg/kg at 2, 6 or 12 h postischemia
Text: Animals were allowed to survive either 2 or 7 days. They were then perfused with a freshly made 3.5 solution of paraformaldehyde in phosphate buffered saline (pH 7.4). After removal, brains were cut at 40 μm, and the sections were stained immunohistochemically with a monoclonal MAP-2 antibody (Sigma) diluted 1:500-1000. Standard peroxidase anti-peroxidase procedure of ABC complex with Vector kit (Hsu et al., 1981) intensified with heavy metal (Adams, 1981) was used. For immunofluorescent studies, the sections were incubated at 4° C. with the primary antibody overnight. Following three 5-10 minute washes, the sections were exposed to the secondary antibodies, i.e., fluorescein isothiocyanate, rhodamine isothiocyanate, and Texas Red conjugated goat anti-mouse IgG. The secondary antibodies were diluted at 1:20-100 in 0.1M phosphate buffer. Qualitative morphological and immunostaining characteristics of the sections were studied using an epifluorescent microscope (Nikon Labophot) equipped with filters (Nikon B2 and Nikon G1B) appropriate for the detection of the secondary antibodies.
Quantitative analysis of MAP-2 presence in the dendritic fields of CA1 was made using a computer image analysis system (Biographics Inc., Winston-Salem, N.C.).

[4] = tested on: gerbils exposed to 10 minutes of brain ischemia; experiment: Chronic ADAC treatment followed by 10 minutes of ischemia; assay type: in vivo, gerbil; details: 0.025, 0.050 or 0.075 mg for 60 days, one day rest
Description: The gerbils were then subjected to 10 minutes of brain ischemia and allowed to recover.

[5] = molecular target: Rat A2 adenosine receptor; experiment: Affinity for A2 adenosine receptor isolated from rats; assay type: binding; details: rat A2 adenosine receptors; read-out: Ki for Rat A2 Receptors (printed K1)
Text: Table 3 below indicates the structure and Ki values for these compounds. Thus, each of these compounds is expected to find utility in the context of the present invention. The five analogues indicated within Table 3 are given for the purposes of illustrating the nature of ADAC-analogues and is not meant to be comprehensive. Additionally, these compounds can be synthesized using a similar approach as the one employed for ADAC. These methods are known in the art. For example, the synthesis of these compounds can be guided by U.S. Pat. No. 5,248,770 or by Jacobson et al., Journal of Medicinal Chemistry, 28, 1341-1346 (1985).

[6] = tested on: brain ischemia; experiment: Comparison of effective neuroprotective concentrations with other A1 agonists; assay type: in vivo, gerbil; details: vs other A1 adenosine receptor agonists examined thus far

NCCNC(=O)Cc1ccc(NC(=O)Cc2ccc(Nc3ncnc4c3ncn4[C@@H]3O[C@H](CO)[C@@H](O)[C@H]3O)cc2)cc1 [ADAC]
preference for target quadrant in postischemic probe trial ([1]; FIG. 2, controls lost all preference): retained a high preference for the target quadrant
recovery of postischemic water maze performance ([1]; preischemic ADAC, FIG. 1): regained water maze performance levels that mirrored the plateau level obtained in preischemic training almost immediately (trial 2, day 9)
hippocampal CA1 neurons surviving ([2]; control 23%): 81%
neuronal loss in cortex and striatum ([2]; control 83% (cortex) and 25% (striatum) surviving): complete elimination of neuronal loss
loss of MAP-2 density in CA1 ([3]; 2 days after ischemia, control 50% loss): no loss
decrease of MAP-2 density in CA1 ([3]; 7 days after occlusion): approximately 15%
survival rate after chronic treatment followed by ischemia ([4]; FIG. 7A): attenuated the effects of brain ischemia
neuronal loss after chronic treatment followed by ischemia ([4]; FIG. 7B): attenuated the effects of brain ischemia
Ki [5]: 0.21 µM
level of efficacy versus other A1 adenosine receptor agonists [6]: about an order of magnitude better
